Entries after “also recorded” stand apart in the source; their conditions may differ. Like-named read-outs stand apart in the source and are kept apart here.
What was measured:
MHV-1 [1] = experiment: Virus pre-treatment (direct virus inactivation) plaque assay, MHV-1; format: cell-based, Murine hepatitis virus 1; settings: for Plaque formation, MHV-1: quadruplicate
Description: (§1) The peptidomimetics were evaluated for their antiviral activity using three different assays: virus pre-treatment, cell pre-treatment, and post-treatment assays, with the main distinction being the timing of the compound addition. Cells were seeded in 24-well plates at a density of 2.5 × 10^5 cells/well and incubated for 48 h at 37 °C. In all assays, the compounds were added to DMEM medium in the absence of fetal bovine serum (FBS). All experiments were performed in duplicate with two independent replicates. The inhibitory effect on viral infectivity was determined by comparing the number of plaques in wells treated with the test compounds (peptidomimetics) to the plaques observed in the control wells (cells infected with the virus without test compounds).
(§2) Virus pre-treatment assay: In this assay, the test compounds were added to the virus (1 × 10^3 PFU/mL) and incubated for 3 h at 37 °C. After incubation, each mixture (virus/peptide) was diluted in DMEM medium containing 10% FBS to neutralize the peptides or mimics. The dilutions were then added to the cell monolayers for 1 h, followed by the addition of an agar overlay containing 1% agar. The cells were further incubated for 72 h, after which they were fixed, stained, and the number of plaques was counted.

[2] = MTT cytotoxicity assay, A9 cells; format: cell-based; settings: mouse, read-out: MHV-1 (A9 Cells) CC50
Description: (§3) The MTT assay was used to assess the cytotoxicity of compounds against the viral host (A9 and Vero) cells. This assay relies on the reduction of the yellow MTT compound to a dark blue formazan product by viable and metabolically active cells. Viral host cells were cultured in 96-well plates and incubated at 37 °C in a 5% CO2 atmosphere, treated with various concentrations of the test compounds together with further incubation for 24 h. After incubation, 100 μL of a 5 mg/mL MTT solution was added to each well and incubated for 2–4 h at 37 °C. The supernatant was then discarded, and 100 μL of 100% DMSO was added to dissolve the formazan salts with vigorous agitation for 10 min at room temperature. The absorbance at 540 nm was measured using a spectrophotometer. Cytotoxicity was determined by comparing the absorbance values in the test and control wells expressed as a percentage. A total of 100 μL DMSO was used for negative control (ctr−), while 100 μL of culture medium represented the positive control (ctr+). All experiments were repeated three times, and the mean values with standard deviations are reported. Nonlinear regression analysis was performed using GraphPad Prism software to determine the CC50 (concentration at which 50% of cells are killed).

HSV-1 [3] = experiment: Virus pre-treatment (direct virus inactivation) plaque assay, HSV-1; format: cell-based, herpes simplex virus 1
Description: as §1, §2

HSV-1 [4] = experiment: Cell pre-treatment plaque assay, HSV-1 on Vero cells; format: cell-based, herpes simplex virus 1; settings: Vero cells preincubated 24 h with 15.625, 7.5, 3.75 µM before infection
Description: (§4) In order to explore additional potential mechanisms, the ability of compounds 11 and 14 to reduce the ability of the two viruses to bind to their respective mammalian host cells was examined. Three concentrations (15.625 µM, 7.5 µM, and 3.75 µM) of compounds 11 and 14, all below their cytotoxic thresholds, were allowed to interact with A9 and Vero cells for 24-h before virus infection. The impact of these interactions was assessed using a plaque assay to determine inhibitory effects.
as §1, with “All experiments were performed in duplicate with two independent replicates.” left out
(§5) Cell pre-treatment assay: The cells were treated with the test compounds and incubated for 24 h at 37 °C. […] The cells were then fixed, stained, and the number of plaques was determined.

[5] = MTT cytotoxicity assay, Vero cells; format: cell-based; settings: African green monkey, read-out: HSV-1 (Vero Cells) CC50
Description: as §3

MHV-1 [6] = experiment: Cell pre-treatment plaque assay, MHV-1 on A9 cells; format: cell-based, Murine hepatitis virus 1; settings: A9 cells preincubated 24 h with 15.625, 7.5, 3.75 µM before infection
Description: as §4
as §1, with “All experiments were performed in duplicate with two independent replicates.” left out
as §5

HSV-1 [7] = experiment: Post-viral infection plaque assay, HSV-1 on Vero cells; format: cell-based, herpes simplex virus 1; settings: compound added 3 h post-infection, 15.625, 7.5, 3.75 µM
Description: (§6) In order to determine if compounds 11 and 14 were able to inhibit aspects of viral infection after the initial binding stage to host mammalian cells, the same concentrations of the compounds were administered to the cells after a 3-h interval post-infection.
as §1
(§7) Post-viral infection assay: The cells were first incubated with viruses (1 × 10^3 PFU/mL) for 3 h at 37 °C to ensure complete cellular entry. Following that, the test compounds were added and incubated for 24 h at 37 °C. […] The cells were then fixed, stained, and the number of plaques was determined.

MHV-1 [8] = experiment: Transmission electron microscopy of treated MHV-1; design: species or system Murine hepatitis virus 1; settings: virus treated at 37 °C for 2 h
Description: (§8) The viruses were treated with compound 11 for MHV-1 and 14 for HSV-1, both at 37 °C for 2 h. Subsequently, 10 µL of the treated mixture was placed on a glow-discharged carbon-coated 200 mesh copper grid and allowed to evaporate for 5 min. The sample was then stained with 1% phosphotungstic acid (pH 6.5) for 30 s to improve the contrast. After air-drying, the grids were examined using an FEI Tecnai G2 20 TEM machine.

MHV-1 [9] = experiment: Post-viral infection plaque assay, MHV-1 on A9 cells; format: cell-based, Murine hepatitis virus 1; settings: compound added 3 h post-infection, 15.625, 7.5, 3.75 µM
Description: as §6, §1, §7

HSV-1 [10] = experiment: Transmission electron microscopy of treated HSV-1; design: species or system herpes simplex virus 1; settings: virus treated at 37 °C for 2 h
Description: as §8

[11] = Murine coronavirus, Table 2, A9 cells, read-out: MHV-1 (A9 Cells) IC50
[12] = Murine coronavirus, virus pre-treatment 3 h at 37 °C, plaque assay, read-out: MHV-1 IC50
[13] = Human alphaherpesvirus 1, Table 2, Vero cells, read-out: HSV-1 (Vero Cells) IC50
[14] = Human alphaherpesvirus 1, virus pre-treatment 3 h at 37 °C, plaque assay, read-out: HSV-1 IC50

Compound | IC50 (MHV-1 [1]; [11]) [µM] | IC50 (MHV-1 [1]; [12]) [µM] | IC50 (HSV-1 [3]; [13]) [µM] | IC50 (HSV-1 [3]; [14]) [µM] | also measured
NCCCCC(N)C(=O)NCCNC(=O)C(Cc1c[nH]c2ccccc12)NC(=O)c1cc(Br)ccc1NC(=O)c1ccc(-c2ccccc2)cc1 (stereo not shown) [Compound 16] | 22.6 | 22.5 | > 62.5 | > 62.5 | CC50 at 24 h [2]: 81.6 µM
NCCNC(=O)C(Cc1c[nH]c2ccccc12)NC(=O)c1cc(F)ccc1NC(=O)c1ccc2ccccc2c1 (stereo not shown) [Compound 3] |  | > 62.5 |  | > 62.5 | 
COc1ncc(-c2ccc(N)c(C(=O)NC(Cc3c[nH]c4ccccc34)C(=O)NCCN)c2)c(OC)n1 (stereo not shown) [Compound 13] |  | > 62.5 |  | > 62.5 | 
NCCCCC(N)C(=O)NCCNC(=O)C(Cc1c[nH]c2ccccc12)NC(=O)c1cc(Br)ccc1NC(=O)c1ccc2ccccc2c1 (stereo not shown) [Compound 15] | 11.1 | 11.1 | > 62.5 | > 62.5 | CC50 at 24 h [2]: 62.7 µM
COc1ccc(NC(=O)c2ccc3ccccc3c2)c(C(=O)NC(Cc2c[nH]c3ccccc23)C(=O)NCCNC(=N)N)c1 (stereo not shown) [Compound 10] |  | > 62.5 |  | > 62.5 | 
NCCNC(=O)C(Cc1c[nH]c2ccccc12)NC(=O)c1cc(-c2ccc3ccccc3c2)ccc1N (stereo not shown) [Compound 11] | 2.18 |  | 34.9 |  | Inhibition of HSV-1 infection, cell pre-treatment (HSV-1 [4]): none of the compounds could inhibit virus infection; also recorded: Neither of the compounds was able to affect viral replication; CC50 at 24 h [5]: 16.7 µM; Inhibition of MHV-1 infection, cell pre-treatment (MHV-1 [6]): none of the compounds could inhibit virus infection; also recorded: Neither of the compounds was able to affect viral replication; Antiviral activity against HSV-1, post-infection treatment (HSV-1 [7]): no noticeable antiviral activity; also recorded: Neither of the compounds was able to affect viral replication; Plaque formation, MHV-1 (MHV-1 [1]; MHV-1 treated with 31.25 µM): complete inhibition of plaque formation; Plaque formation, MHV-1 (MHV-1 [1]; MHV-1 treated with 62.5 µM): complete inhibition of plaque formation; IC50 (MHV-1 [1]; Murine coronavirus, read-out: MHV-1 IC50): 2.38 µM; inhibition at 2.18 µM (MHV-1 [1]; Murine coronavirus, at 2.18 µM): > 50%; CC50 at 24 h [2]: 20.5 µM; Effect on MHV-1 viral envelope (TEM) (MHV-1 [8]): disrupted viral envelope; also recorded: complete disruption of the viral envelope; IC50 (HSV-1 [3]; Human alphaherpesvirus 1, read-out: HSV-1 IC50): 34.9 µM; Antiviral activity against MHV-1, post-infection treatment (MHV-1 [9]): no noticeable antiviral activity; also recorded: Neither of the compounds was able to affect viral replication
N=C(N)NCCNC(=O)C(Cc1c[nH]c2ccccc12)NC(=O)c1cc(Br)ccc1NC(=O)c1ccc2ccccc2c1 (stereo not shown) [Compound 7] | > 62.5 | > 62.5 | 32.8 | 32.7 | CC50 at 24 h [5]: 127 µM
NCCNC(=O)C(Cc1c[nH]c2ccccc12)NC(=O)c1cc(Cl)ccc1NC(=O)c1ccc2ccccc2c1 (stereo not shown) [Compound 4] |  | > 62.5 |  | > 62.5 | 
NCCNC(=O)C(Cc1c[nH]c2ccccc12)NC(=O)c1cc(-c2ccc(-c3ccccc3)cc2)ccc1N (stereo not shown) [Compound 12] |  | > 62.5 |  | > 62.5 | 
NCCNC(=O)C(Cc1c[nH]c2ccccc12)NC(=O)c1cc(-c2ccccc2-c2ccccc2)ccc1N (stereo not shown) [Compound 14] | 6.3 | 6.3 | 13 | 13 | Inhibition of HSV-1 infection, cell pre-treatment (HSV-1 [4]): none of the compounds could inhibit virus infection; also recorded: Neither of the compounds was able to affect viral replication; Effect on HSV-1 viral envelope (TEM) (HSV-1 [10]): partial disruption of the HSV-1 envelope; also recorded: partial destruction of the HSV-1 envelope; CC50 at 24 h [5]: 15.2 µM; Inhibition of MHV-1 infection, cell pre-treatment (MHV-1 [6]): none of the compounds could inhibit virus infection; also recorded: Neither of the compounds was able to affect viral replication; Antiviral activity against HSV-1, post-infection treatment (HSV-1 [7]): no noticeable antiviral activity; also recorded: Neither of the compounds was able to affect viral replication; CC50 at 24 h [2]: 10.2 µM; Plaque formation, HSV-1 (HSV-1 [3]; HSV-1 treated with 31.25 µM): complete inhibition of plaque formation; Plaque formation, HSV-1 (HSV-1 [3]; HSV-1 treated with 62.5 µM, four replicates): complete inhibition of plaque formation; inhibition at 13 µM (HSV-1 [3]; Human alphaherpesvirus 1, at 13 µM): > 50%; Antiviral activity against MHV-1, post-infection treatment (MHV-1 [9]): no noticeable antiviral activity; also recorded: Neither of the compounds was able to affect viral replication
NCCNC(=O)C(Cc1c[nH]c2ccccc12)NC(=O)c1ccccc1NC(=O)c1ccc2ccccc2c1 (stereo not shown) [Compound 1] |  | > 62.5 |  | > 62.5 | 
N=C(N)NCCNC(=O)C(Cc1c[nH]c2ccccc12)NC(=O)c1ccccc1NC(=O)c1ccc2ccccc2c1 (stereo not shown) [Compound 6] |  | > 62.5 |  | > 62.5 | 
N=C(N)NCCNC(=O)C(Cc1c[nH]c2ccccc12)NC(=O)c1cc(F)ccc1NC(=O)c1ccc2ccccc2c1 (stereo not shown) [Compound 8] |  | > 62.5 |  | > 62.5 | 
COc1ccc(NC(=O)c2ccc3ccccc3c2)c(C(=O)NC(Cc2c[nH]c3ccccc23)C(=O)NCCN)c1 (stereo not shown) [Compound 5] |  | > 62.5 |  | > 62.5 | 
N=C(N)NCCNC(=O)C(Cc1c[nH]c2ccccc12)NC(=O)c1cc(Cl)ccc1NC(=O)c1ccc2ccccc2c1 (stereo not shown) [Compound 9] | > 62.5 | > 62.5 | 14.9 | 14.8 | CC50 at 24 h [5]: 45 µM
NCCNC(=O)C(Cc1c[nH]c2ccccc12)NC(=O)c1cc(Br)ccc1NC(=O)c1ccc2ccccc2c1 (stereo not shown) [Compound 2] |  | > 62.5 |  | > 62.5 | 
NCCCCC(N)C(=O)NCCNC(=O)C(Cc1c[nH]c2ccccc12)NC(=O)c1cc(Br)ccc1NC(=O)c1cccc(-c2ccccc2)c1 (stereo not shown) [Compound 17] | 11.8 | 11.8 | > 62.5 | > 62.5 | CC50 at 24 h [2]: 114 µM

Reference: publication PMC10525570, “Antiviral Activity of Anthranilamide Peptidomimetics against Herpes Simplex Virus 1 and a Coronavirus” (Antibiotics, 2023)
